The text below walks through data of ChEMBL document CHEMBL5346927, “Discovery of a novel 1H-pyrazole- [3,4-b] pyridine-based lysine demethylase 5B inhibitor with potential anti-prostate cancer activity that perturbs the phosphoinositide 3-kinase/AKT pathway” (Eur J Med Chem, 2023).

Molecules are shown by their SMILES. pIC50: −log10 of the molar value.

The target in test [1] is T1, Lysine-specific demethylase 5B (Homo sapiens, UniProt Q9UGL1). Put plainly: Inhibition of KDM5B (unknown origin) at 10 uM relative to control.
Test [2] has as its target T1, Lysine-specific demethylase 5B. In words: Inhibition of KDM5B (unknown origin).

T1 sequence (Q9UGL1 whole entry): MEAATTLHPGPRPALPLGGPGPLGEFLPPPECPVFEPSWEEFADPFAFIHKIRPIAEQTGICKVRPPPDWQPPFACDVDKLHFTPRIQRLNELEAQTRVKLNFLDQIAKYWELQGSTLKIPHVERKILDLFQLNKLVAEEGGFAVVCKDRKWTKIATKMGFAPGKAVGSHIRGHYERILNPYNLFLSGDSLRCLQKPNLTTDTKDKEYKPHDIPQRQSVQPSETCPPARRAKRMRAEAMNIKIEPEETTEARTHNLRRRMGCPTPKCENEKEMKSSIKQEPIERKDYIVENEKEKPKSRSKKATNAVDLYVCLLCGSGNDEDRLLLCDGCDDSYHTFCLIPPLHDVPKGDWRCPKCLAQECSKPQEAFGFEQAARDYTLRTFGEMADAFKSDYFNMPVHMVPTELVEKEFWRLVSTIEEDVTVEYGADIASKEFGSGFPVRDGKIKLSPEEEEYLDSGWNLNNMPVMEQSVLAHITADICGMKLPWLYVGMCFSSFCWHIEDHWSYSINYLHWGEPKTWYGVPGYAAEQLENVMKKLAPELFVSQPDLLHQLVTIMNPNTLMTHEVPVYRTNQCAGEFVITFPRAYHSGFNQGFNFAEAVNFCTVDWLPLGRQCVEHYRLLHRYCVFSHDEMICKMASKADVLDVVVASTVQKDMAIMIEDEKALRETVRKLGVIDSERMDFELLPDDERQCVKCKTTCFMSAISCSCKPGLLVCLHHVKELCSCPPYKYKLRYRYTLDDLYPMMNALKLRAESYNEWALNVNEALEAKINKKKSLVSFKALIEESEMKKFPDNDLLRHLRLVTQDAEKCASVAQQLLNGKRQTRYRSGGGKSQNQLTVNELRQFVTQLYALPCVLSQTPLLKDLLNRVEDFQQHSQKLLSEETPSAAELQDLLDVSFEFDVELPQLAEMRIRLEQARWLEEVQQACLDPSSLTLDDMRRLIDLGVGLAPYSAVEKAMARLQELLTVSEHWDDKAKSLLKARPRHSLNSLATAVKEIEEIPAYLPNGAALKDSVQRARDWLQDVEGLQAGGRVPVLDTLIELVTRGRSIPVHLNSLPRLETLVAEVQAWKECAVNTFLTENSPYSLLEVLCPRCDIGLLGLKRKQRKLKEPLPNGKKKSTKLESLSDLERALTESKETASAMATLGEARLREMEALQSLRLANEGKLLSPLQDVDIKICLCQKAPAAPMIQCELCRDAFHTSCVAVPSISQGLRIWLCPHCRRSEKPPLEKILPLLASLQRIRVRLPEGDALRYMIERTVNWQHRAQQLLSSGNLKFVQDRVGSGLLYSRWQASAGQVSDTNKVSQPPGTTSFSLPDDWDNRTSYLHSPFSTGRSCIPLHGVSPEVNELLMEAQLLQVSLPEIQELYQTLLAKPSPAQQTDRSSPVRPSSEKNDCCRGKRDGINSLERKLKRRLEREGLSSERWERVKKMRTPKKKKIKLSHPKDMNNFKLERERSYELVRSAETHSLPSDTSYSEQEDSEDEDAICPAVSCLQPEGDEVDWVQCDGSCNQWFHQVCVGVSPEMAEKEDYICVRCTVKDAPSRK

As usually defined, the inhibition is the drop in the measured response relative to a control, in per cent. The pIC50 is the negative decadic logarithm of the IC50, by convention in mol/L. Consider `Cc1ccccc1-n1ncc2c(C(=O)NCCN3CCN(C)CC3)cc(-c3ccc4ccccc4c3)nc21`, for which the inhibition in test [1] was 86%. This compound also had a negative-log IC50 (pIC50) in test [2] of 5.48.

For `Cc1ccc(-n2ncc3c(C(=O)NCc4cn(Cc5ccc(C(F)(F)F)cc5)nn4)cc(-c4ccc5ccccc5c4)nc32)cc1`, the inhibition in test [1] was found to be 58%. This compound also showed a pIC50 in test [2] of 5.16.

As for `Cc1ccc(-c2cc(C(=O)NCCN3CCN(C)CC3)c3cnn(-c4ccccc4)c3n2)cc1`, the inhibition in test [1] amounted to 79%. For the same compound, the pIC50 in test [2] is 6.18.

Regarding `Cc1ccc(-n2ncc3c(C(=O)Nc4ccccc4)cc(-c4ccc5ccccc5c4)nc32)cc1`, in test [1], the inhibition was -1%. In test [2], this compound had a pIC50 of less than 5.00.

As to `CN1CCN(CCNC(=O)c2cc(-c3ccccc3)nc3c2cnn3-c2ccc(Br)cc2)CC1`, the inhibition in test [1] worked out at 44%. The pIC50 in test [2] was less than 5.00.

In the case of `CN1CCN(CCNC(=O)c2cc(-c3ccccc3)nc3c2cnn3-c2cccc(Cl)c2)CC1`, the inhibition in test [1] came to 6%. In test [2], the pIC50 was less than 5.00.

Regarding `CN1CCN(CCNC(=O)c2cc(-c3ccc4ccccc4c3)nc3c2cnn3-c2ccc(Br)cc2)CC1`, the inhibition in test [1] was 46%. In test [2], this compound had a pIC50 of less than 5.00.

As to `Cc1ccc(-n2ncc3c(C(=O)NCCN4CCN(C)CC4)cc(-c4ccccc4)nc32)cc1`, the inhibition in test [1] was 95%. In test [2], this compound had a pIC50 of 5.78.

Take `CN1CCN(CCNC(=O)c2cc(-c3ccccc3)nc3c2cnn3-c2ccccc2Cl)CC1`: the inhibition in test [1] amounted to 21%. Besides, the negative-log IC50 (pIC50) in test [2] was less than 5.00.

On to `CN1CCN(CCNC(=O)c2cc(-c3ccc(Cl)cc3)nc3c2cnn3-c2ccccc2)CC1`, for which the inhibition in test [1] was found to be 43%. Also, the negative logarithm of the IC50 (pIC50) in test [2] was less than 5.00.

As for `Cc1ccc(-n2ncc3c(C(=O)NCc4ccccc4)cc(-c4ccc5ccccc5c4)nc32)cc1`, the inhibition in test [1] was determined as 27%. The pIC50 in test [2] was less than 5.00.

Turning to `Cc1ccccc1-n1ncc2c(C(=O)NCCN3CCN(C)CC3)cc(-c3ccccc3)nc21`, the inhibition in test [1] was found to be 83%. Besides, the pIC50 in test [2] was 5.38.

`CN1CCN(CCNC(=O)c2cc(-c3ccccc3)nc3c2cnn3-c2ccccc2)CC1`: the inhibition in test [1] is 93%. For the same compound, the pIC50 in test [2] was 6.13.

Take `CN1CCN(CCNC(=O)c2cc(-c3ccc(Br)cc3)nc3c2cnn3-c2ccccc2)CC1`: the inhibition in test [1] was determined as 31%. Moreover, the negative logarithm of the IC50 (pIC50) in test [2] was less than 5.00.

Regarding `Cc1ccc(-n2ncc3c(C(=O)NCc4cn(-c5ccc(F)cc5)nn4)cc(-c4ccc5ccccc5c4)nc32)cc1`, the inhibition in test [1] was 23%. The pIC50 in test [2] was less than 5.00.

Take `Cc1cccc(-n2ncc3c(C(=O)NCCN4CCN(C)CC4)cc(-c4ccccc4)nc32)c1`: in test [1], the inhibition amounted to 14%. This compound also gave a pIC50 in test [2] of less than 5.00.

Turning to `Cc1ccc(-n2ncc3c(C(=O)NCc4cn(-c5ccc(C)c(C)c5)nn4)cc(-c4ccc5ccccc5c4)nc32)cc1`, the inhibition in test [1] was found to be 51%. This compound also showed a pIC50 in test [2] of 5.03.

Regarding `Cc1ccc(-n2ncc3c(C(=O)NCc4cn(-c5ccc(C)cc5C)nn4)cc(-c4ccc5ccccc5c4)nc32)cc1`, the inhibition in test [1] worked out at 17%. For the same compound, the pIC50 in test [2] was less than 5.00.

For `Cc1ccc(-n2ncc3c(C(=O)NCc4cn(Cc5ccc(C#N)cc5)nn4)cc(-c4ccc5ccccc5c4)nc32)cc1`, the inhibition in test [1] amounted to 63%. For the same compound, the negative logarithm of the IC50 (pIC50) in test [2] was 5.19.

`Cc1ccc(-n2ncc3c(C(=O)NCCN4CCN(C)CC4)cc(-c4ccccc4)nc32)cc1C`: the inhibition in test [1] was found to be 79%. This compound also gave a pIC50 in test [2] of 5.43.

Consider `CN1CCN(CCNC(=O)c2cc(-c3ccccc3)nc3c2cnn3-c2ccc(C(F)(F)F)cc2)CC1`, for which the inhibition in test [1] came out at 20%. Besides, the negative logarithm of the IC50 (pIC50) in test [2] was less than 5.00.

In the case of `Cc1cccc(-c2cc(C(=O)NCCN3CCN(C)CC3)c3cnn(-c4ccccc4)c3n2)c1`, the inhibition in test [1] worked out at 67%. Besides, the negative-log IC50 (pIC50) in test [2] was 5.55.

Regarding `CC(C)c1ccc(-n2ncc3c(C(=O)NCCN4CCN(C)CC4)cc(-c4ccccc4)nc32)cc1`, the inhibition in test [1] stood at 83%. The negative-log IC50 (pIC50) in test [2] was 5.40.

In the case of `CC(C)c1ccc(-c2cc(C(=O)NCCN3CCN(C)CC3)c3cnn(-c4ccccc4)c3n2)cc1`, the inhibition in test [1] turned out to be 87%. The negative logarithm of the IC50 (pIC50) in test [2] is 6.88.

As to `Cc1ccc(-n2ncc3c(C(=O)NCCN4CCCC4)cc(-c4ccc5ccccc5c4)nc32)cc1`, the inhibition in test [1] was 58%. This compound showed a pIC50 in test [2] of 5.13.

In the case of `Cc1cccc(-n2ncc3c(C(=O)NCCN4CCN(C)CC4)cc(-c4ccc5ccccc5c4)nc32)c1`, in test [1], the inhibition worked out at 53%. For the same compound, the pIC50 in test [2] is 5.03.

In the case of `COc1ccc(-c2cc(C(=O)NCCN3CCN(C)CC3)c3cnn(-c4ccccc4)c3n2)cc1`, the inhibition in test [1] is 88%. Moreover, in test [2], the negative logarithm of the IC50 (pIC50) is 6.63.

As for `Cc1ccc(-n2ncc3c(C(=O)NCCN(C)C)cc(-c4ccc5ccccc5c4)nc32)cc1`, the inhibition in test [1] is 64%. In addition, the pIC50 in test [2] is 5.27.

As for `Cc1ccc(-n2ncc3c(C(=O)NCCN4CCN(C)CC4)cc(-c4ccc5ccccc5c4)nc32)cc1C`, the inhibition in test [1] worked out at 89%. The same compound showed a negative logarithm of the IC50 (pIC50) in test [2] of 5.71.

Consider `Cc1ccc(-n2ncc3c(C(=O)NC4CCCC4)cc(-c4ccc5ccccc5c4)nc32)cc1`, for which the inhibition in test [1] was 5%. For the same compound, in test [2], the negative-log IC50 (pIC50) was less than 5.00.

In the case of `C#CNC(=O)c1cc(-c2ccc3ccccc3c2)nc2c1cnn2-c1ccc(C)cc1`, the inhibition in test [1] turned out to be 28%. The negative-log IC50 (pIC50) in test [2] is less than 5.00.

Take `Cc1ccc(-n2ncc3c(C(=O)NCCN4CCN(C)CC4)cc(-c4ccc5ccccc5c4)nc32)cc1`: the inhibition in test [1] is 79%. Further, the negative-log IC50 (pIC50) in test [2] is 5.87.

As for `Cc1ccc(-n2ncc3c(C(=O)NCc4cn(-c5cccc(Br)c5)nn4)cc(-c4ccc5ccccc5c4)nc32)cc1`, in test [1], the inhibition was 51%. This compound also showed a negative-log IC50 (pIC50) in test [2] of 5.02.

In the case of `CC(C)n1ncc2c(C(=O)NCc3cn(Cc4ccccc4)nn3)cc(-c3ccc4ccccc4c3)nc21`, the inhibition in test [1] was 57%. Besides, the negative logarithm of the IC50 (pIC50) in test [2] is 5.11.

For the compound `Cc1ccc(-n2ncc3c(C(=O)NCc4cn(-c5ccccc5)nn4)cc(-c4ccc5ccccc5c4)nc32)cc1`, the inhibition in test [1] was 74%. The negative logarithm of the IC50 (pIC50) in test [2] is 5.66.

Take `Cc1ccc(-n2ncc3c(C(=O)NCc4cn(-c5ccc(I)cc5)nn4)cc(-c4ccc5ccccc5c4)nc32)cc1`: the inhibition in test [1] was 58%. This compound showed a pIC50 in test [2] of 5.18.

For `Cc1ccccc1-c1cc(C(=O)NCCN2CCN(C)CC2)c2cnn(-c3ccccc3)c2n1`, the inhibition in test [1] stood at 60%. In addition, the pIC50 in test [2] is 5.21.

Regarding `Cc1cc(C)cc(-n2ncc3c(C(=O)NCCN4CCN(C)CC4)cc(-c4ccccc4)nc32)c1`, the inhibition in test [1] came to 20%. Moreover, in test [2], the pIC50 was less than 5.00.

Regarding `CN1CCN(CCNC(=O)c2cc(-c3ccccc3)nc3c2cnn3-c2ccc(Cl)cc2)CC1`, the inhibition in test [1] was determined as 40%. The negative-log IC50 (pIC50) in test [2] is less than 5.00.

Turning to `Cc1cc(C)cc(-c2cc(C(=O)NCCN3CCN(C)CC3)c3cnn(-c4ccc5ccccc5c4)c3n2)c1`, the inhibition in test [1] is 35%. The compound further gave a negative-log IC50 (pIC50) in test [2] of less than 5.00.

For `Cc1ccc(-n2ncc3c(C(=O)NCc4cn(-c5cccc(F)c5)nn4)cc(-c4ccc5ccccc5c4)nc32)cc1`, the inhibition in test [1] stood at 71%. In test [2], this compound gave a pIC50 of 5.28.

For `Cc1ccc(-n2ncc3c(C(=O)NCc4cn(Cc5ccccc5)nn4)cc(-c4ccc5ccccc5c4)nc32)cc1`, the inhibition in test [1] is 72%. Further, the pIC50 in test [2] was 5.41.

Consider `O=C(O)CNC(=O)C(=O)O` [N-OXALYLGLYCINE], for which the negative-log IC50 (pIC50) in test [2] was 3.04.
